From patent publication US12186311B2, “Antiproliferative compounds and second active agents for combined use” (Celgene Corporation, priority 2019, dated 2025)

Legend:
[1] = tested on: acute myeloid leukemia (AML); details: administered alone; cited from earlier work
H929 cell line = test: Thymidine incorporation, combination with Compound 2, combination index (Calcusyn), H929; assay type: cell-based; details: H929, 3 days
Experimental: H929 cell line was treated with various doses of Compound 2 in combination with increasing doses of an EZH2 inhibitor UNC1999 for 3 days. Cell proliferation was analyzed using thymidine incorporation assays. Combination index values were calculated by Calcusyn and values below 10^0 represented the synergy between the combination treatments. The results are shown in FIG. 5A (H929) and FIG. 5B (H929 combination index).

[2] = tested on: K12PE (parental) cell line; test: Cell proliferation, combination with Compound 2, combination index (Calcusyn), K12PE; assay type: cell-based; details: 3 days
Experimental: (§1) K12PE (parental) and K12PE-PR (pomalidomide resistant) cell lines were treated with various doses of Compound 2 in combination with increasing doses of a BRD4 inhibitor JQ1 for 3 days. Cell proliferation was analyzed using thymidine incorporation assays. Combination index values were calculated by Calcusyn and values below 10^0 represented the synergy between the combination treatments. The results are shown in FIG. 3A (K12PE), FIG. 3B (K12PE combination index), FIG. 3C (K12PE-PR), and FIG. 3D (K12PE-PR combination index), respectively.
(§2) AMO1, AMO1-PR (pomalidomide resistant), K12PE and K12PE-PR (pomalidomide resistant) cell lines were treated with increasing doses of Compound 2 in combination with an AURKB inhibitor (AZD 1152). Changes in cell proliferation were studied in response to monotherapy and combinations at Day 3 post treatment. Combination index values were calculated by Calcusyn and values below […] represented the synergy between the combination treatments. AUKKB is one of the key target gene of MDMS8 (molecularly defined myeloma segment 8), a high risk cluster identified from myeloma genome project. The results are shown in FIG. 8A (AMO1 combination index), FIG. 8B (K12PE combination index), FIG. 8C (AMO1-PR combination index), and FIG. 8D (K12PE-PR combination index), respectively. […]

[3] = tested on: K12PE-PR (pomalidomide resistant) cell line; test: Cell proliferation, combination with Compound 2, combination index (Calcusyn), K12PE-PR; assay type: cell-based; details: 3 days
Experimental: as §1, §2

[4] = tested on: non-selective α1 adrenergic receptor in rat cerebral cortex; test: α1 adrenergic receptor binding at 10 μM ([3H]prazosin); details: inhibition of control [3H]prazosin binding
Experimental: (§3) α1 Adrenergic and Dopamine D2 Receptors. Methods: Binding and functional assays for al adrenergic and dopamine D2 receptors were performed by Eurofins Cerep according to their methods.
α1 Adrenergic Receptor. Binding at 10 μM. The binding assay evaluated the affinity of test article for the non-selective al adrenergic receptor in rat cerebral cortex. Membrane homogenates of cerebral cortex were incubated in duplicate for 60 minutes at room temperature with 0.25 nM [^3H]prazosin in the absence or presence of test articles at 10 μM. After the incubation period, samples were filtered through glass fiber filters, the filters dried and then counted for radioactivity using a scintillation counter. Results are expressed as mean percent inhibition of control radioligand binding.

[5] = target: T1, dopamine D2S receptor in transfected HEK-293 cells (Homo sapiens, UniProt P14416); test: Dopamine D2S receptor binding at 10 μM; details: read-out: Dopamine D2S % Inh. (@10 uM)
T1 construct: host or cells: HEK-293
Experimental: as §3
Dopamine D2 Receptor. Binding at 10 μM. The binding assay evaluated the affinity of test articles for the dopamine D2 receptor in transfected human embryonic kidney (HEK)-293 cells. For determining the binding in the D2s receptor assay, test article was incubated with 0.3 nM [^3H] methylspiperone or 1 nM [^3H] 7-hydroxy-2-N,N-dipropylaminotetralin (7-OH-DPAT). [^3H] Methylspiperone at 0.3 nM also was used as control ligand in the D2L binding assay. Cell membrane homogenates were incubated in duplicate at room temperature for 60 minutes with ligand in the absence or presence of test articles at 10 μM. After the incubation period, samples were filtered through glass fiber filters, the filters dried and then counted for radioactivity using a scintillation counter. Results are expressed as mean percent inhibition of control radioligand binding.

[6] = tested on: AMO1 (parental) cell line; test: Cell proliferation, combination with Compound 2, combination index (Calcusyn), AMO1; assay type: cell-based; details: AMO1, 3 days
Experimental: (§4) AMO1 (parental) and AMO1-PR (pomalidomide resistant) cell lines were treated with various doses of Compound 2 in combination with increasing doses of an MEK inhibitor trametinib for 3 days. Cell proliferation was analyzed using thymidine incorporation assays. Combination index values were calculated by Calcusyn and values below 10^0 represented the synergy between the combination treatments. The results are shown in FIG. 4A (AMO1), FIG. 4B (AMO1 combination index), FIG. 4C (AMO1-PR), and FIG. 4D (AMO1-PR combination index), respectively.
(§5) AMO1 and AMO1-PR (pomalidomide resistant) cell lines were treated with increasing doses of Compound 2 in combination with a PLK1 inhibitor (BI2536). Changes in cell proliferation were studied in response to monotherapy and combinations at Day 3 post treatment. Combination Index was calculated using Calcusyn based method. Combination index values were calculated by Calcusyn and values below 10^0 represented the synergy between the combination treatments. PLK1 is one of the key target gene of MDMS8 (molecularly defined myeloma segment 8), a high risk cluster identified from myeloma genome project. The results are shown in FIG. 6A (AMO1), FIG. 6B (AMO1 combination index), FIG. 6C (AMO1-PR), and FIG. 6D (AMO1-PR combination index), respectively. Inhibition of MDMS8 target gene PLK1 with Compound 2 is synergistic in AMO1 and AMO1-PR cells.
(§6) AMO1 and AMO1-PR (pomalidomide resistant) cell lines were treated with increasing doses of Compound 2 in combination with an NEK2 inhibitor (JH295). Changes in cell proliferation were studied in response to monotherapy and combinations at Day 3 post treatment. Combination index values were calculated by Calcusyn and values below 10^0 represented the synergy between the combination treatments. NEK2 is one of the key target gene of MDMS8 (molecularly defined myeloma segment 8), a high risk cluster identified from myeloma genome project. The results are shown in FIG. 7A (AMO1 combination index) and FIG. 7B (AMO1-PR combination index), respectively. Inhibition of MDMS8 target gene NEK2 with Compound 2 is synergistic in AMO1 and AMO1-PR cells.
(§7) AMO1, AMO1-PR (pomalidomide resistant), K12PE and K12PE-PR (pomalidomide resistant) cell lines were treated with increasing doses of Compound 2 in combination with an AURKB inhibitor (AZD 1152). […] Combination index values were calculated by Calcusyn and values below […] represented the synergy between the combination treatments. […]
(§8) AMO1, AMO1-PR (pomalidomide resistant) cell lines were treated with increasing doses of Compound 2 in combination with a BIRC5 inhibitor (YM155). […] Combination index values were calculated by Calcusyn and values below 10^0 represented the synergy between the combination treatments. […]

[7] = tested on: AMO1-PR (pomalidomide resistant) cell line; test: Cell proliferation, combination with Compound 2, combination index (Calcusyn), AMO1-PR; assay type: cell-based; details: 3 days
Experimental: as §4, §5, §6, §7, §8

OPM-2.P10 cells = test: 7 day combination assay (Annexin V/7-AAD flow cytometry, fractional product method), OPM.2-P10; assay type: cell-based; details: OPM-2.P10, 7 day assay
Experimental: (§9) Additional second agents, including DNA methyltransferase inhibitors, EZH2 inhibitors, DOT1L inhibitors, and BET inhibitors were selected for combination studies with Compound 2 in relapsed refractory multiple myeloma. Five MM cell lines with acquired or inherent resistance to lenalidomide or pomalidomide were included in the studies (OPM.2-P10, H929-1051, KMS12BM PR, L363, and JJN3). The effect of Compound 2 in combination with these second agents on MM cells were assessed in a 7 day in vitro assay. The MM cells were seeded at densities according to the growth rate of each cell line with the aim of achieving 50-100K cells by Day 7. The assay was performed in a 96-well plate. All MM cell lines were cultured in an incubator at 37° C. with 5% CO2 using the indicated cell culture media containing 1×Penicillin-Streptomycin. The MM cells were primed for 3 days with these second agents at the single agent IC50 value. […] Compound 2 was added to the cells at a dose range of 30 μM-0.00018 μM, depending on the cell line, for a 8 point dose response curve. The cells were incubated at 37° C. for an additional 4 days. At the end of the 7 day treatment, the MM cells were stained with Annexin V and 7-AAD and analyzed on a flow cytometer. Live MM cells were identified as Annexin V and 7-AAD double negative cells. […]

H929-1051 cells = test: 7 day combination assay (Annexin V/7-AAD flow cytometry, fractional product method), H929-1051; assay type: cell-based; details: H929-1051, 7 day assay
Experimental: as §9

T1 sequence (P14416 1-414 isoform P14416-2): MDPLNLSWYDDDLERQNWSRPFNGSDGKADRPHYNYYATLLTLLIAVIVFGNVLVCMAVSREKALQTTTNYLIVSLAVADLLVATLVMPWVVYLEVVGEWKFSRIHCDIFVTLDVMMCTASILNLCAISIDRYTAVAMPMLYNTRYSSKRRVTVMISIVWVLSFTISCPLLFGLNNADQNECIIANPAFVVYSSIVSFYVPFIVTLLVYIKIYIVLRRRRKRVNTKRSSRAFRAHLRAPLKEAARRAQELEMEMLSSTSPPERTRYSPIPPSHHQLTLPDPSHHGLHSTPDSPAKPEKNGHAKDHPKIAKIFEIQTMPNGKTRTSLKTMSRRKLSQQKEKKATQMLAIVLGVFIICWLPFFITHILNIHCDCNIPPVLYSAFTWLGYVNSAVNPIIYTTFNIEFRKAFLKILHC

Molecule: CT-011: anti-PD-1 antibody, a humanized antibody
- response in treating acute myeloid leukemia (AML) at relapse [1]: failed to show response

Molecule: CCCc1cc(C)[nH]c(=O)c1CNC(=O)c1cc(-c2ccc(N3CCN(C(C)C)CC3)nc2)cc2c1cnn2C(C)C [UNC1999, 1-Isopropyl-6-(6-(4-isopropylpiperazin-1-yl)pyridin-3-yl)-N-((6-methyl-2-oxo-4-propyl-1,2-dihydropyridin-3-yl)methyl)-1H-indazole-4-carboxamide]
- synergy with Compound 2 (combination index) (H929 cell line): synergistic activity with Compound 2

Molecule: Cc1sc2c(c1C)C(c1ccc(Cl)cc1)=N[C@@H](CC(=O)OC(C)(C)C)c1nnc(C)n1-2 [JQ1, (S)-tert-butyl 2-(4-(4-chlorophenyl)-2,3,9-trimethyl-6H-thieno[3,2-f][1,2,4]triazolo[4,3-a][1,4]diazepin-6-yl)acetate]
- synergy with Compound 2 (combination index) [2]: synergistic activity with Compound 2
- synergy with Compound 2 (combination index) [3]: synergistic activity with Compound 2

Molecule: N#Cc1ccc(N2CCN(Cc3ccc(COc4cccc5c4CN([C@H]4CCC(=O)NC4=O)C5=O)cc3)CC2)c(F)c1 [Compound 2, (S)-4-(4-(4-(((2-(2,6-dioxopiperidin-3-yl)-1-oxoisoindolin-4-yl)oxy)methyl)benzyl)piperazin-1-yl)-3-fluorobenzonitrile]
- Adrenergic α1 % Inh. (@10 uM) [4]: 62%
- inhibition at 10 µM [5]: 52%

Molecule: CCN(CCCOc1ccc2c(Nc3cc(CC(=O)Nc4cccc(F)c4)[nH]n3)ncnc2c1)CCOP(=O)(O)O [AZD 1152]
- synergy with Compound 2 (combination index) [2]: synergistic
- synergy with Compound 2 (combination index) [3]: synergistic
- synergy with Compound 2 (combination index) [6]: synergistic
- synergy with Compound 2 (combination index) [7]: synergistic

Molecule: Cn1cc(-c2cc(S(C)(=O)=O)ccc2OCC2CC2)c2ccccc2c1=O [Compound C, 4-[2-(cyclopropylmethoxy)-5-(methanesulfonyl)phenyl]-2-methylisoquinolin-1(2H)-one]
- synergy in combination with Compound 2 (OPM-2.P10 cells): significant synergy
- synergy in combination with Compound 2 (H929-1051 cells): significant synergy

Molecule: O=C1CCC(N2Cc3c(OCc4ccc(CN5CCN(c6ccc(F)cc6F)CC5)cc4)cccc3C2=O)C(=O)N1 (racemic) [Compound A, 3-(4-((4-((4-(2,4-difluorophenyl)piperazin-1-yl)methyl)benzyl)oxy)-1-oxoisoindolin-2-yl)piperidine-2,6-dione]
- Adrenergic α1 % Inh. (@10 uM) [4]: 102%
- inhibition at 10 µM [5]: 99%

Molecule: N#Cc1ccc(N2CCN(Cc3ccc(COc4cccc5c4CN(C4CCC(=O)NC4=O)C5=O)cc3)CC2)c(F)c1 (racemic) [Compound 1, 4-(4-(4-(((2-(2,6-dioxopiperidin-3-yl)-1-oxoisoindolin-4-yl)oxy)methyl)benzyl)piperazin-1-yl)-3-fluorobenzonitrile]
- Adrenergic α1 % Inh. (@10 uM) [4]: 67%
- inhibition at 10 µM [5]: 55%
